Experiments:
[1] = system: Wnt activity (Sp5-Luc reporter in SW480 cells); assay: Screening assay for Wnt activity: Sp5-Luc reporter gene assay in SW480 colon carcinoma cells; type: cell-based, human; conditions: Homo sapiens, 36 to 48 hours
Outline: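 EC50 values come from a variable-slope four-parameter fit of luminescence normalized to DMSO-only wells. The read-out follows 36–48 h incubation at 37 °C, 5% CO2, in DMEM containing 1% fetal bovine serum. Cells are hygromycin-selected SW480 stably expressing firefly luciferase under a Wnt-responsive Sp5 promoter (eight TCF/LEF sites).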

DYRK1A kinase = DYRK1A kinase (Homo sapiens (Human), UniProt Q13627); assay: DYRK1A kinase assay (Ser/Thr 18 peptide Z-lyte FRET); type: biochemical; conditions: read-out: EC50 (method: IC50)
Outline: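 Kinase reactions with compound ran 1 h at room temperature in duplicate, and development reagent was then added for another hour.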

GSK3β kinase = GSK3β kinase (Homo sapiens (Human), UniProt P49841); assay: GSK3β kinase assay (Ser/Thr 09 peptide Z-lyte FRET); type: biochemical; conditions: read-out: EC50 (method: IC50)
Sequence of GSK3β kinase (P49841 whole entry): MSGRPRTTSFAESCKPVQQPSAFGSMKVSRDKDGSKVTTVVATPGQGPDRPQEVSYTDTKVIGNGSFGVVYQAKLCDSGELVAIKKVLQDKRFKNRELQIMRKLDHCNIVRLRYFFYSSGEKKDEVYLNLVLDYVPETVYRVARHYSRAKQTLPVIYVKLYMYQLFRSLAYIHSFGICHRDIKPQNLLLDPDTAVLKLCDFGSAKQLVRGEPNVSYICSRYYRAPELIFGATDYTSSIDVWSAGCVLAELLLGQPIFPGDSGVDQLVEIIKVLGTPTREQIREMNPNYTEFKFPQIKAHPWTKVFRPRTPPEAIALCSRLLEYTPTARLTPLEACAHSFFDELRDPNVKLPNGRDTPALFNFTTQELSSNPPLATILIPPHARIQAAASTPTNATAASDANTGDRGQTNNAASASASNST
Outline: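 Non-radioactive Z-lyte FRET read-out, kinase activity expressed as coumarin/fluorescein emission ratio. Compounds incubated with the reaction mixture one hour at room temperature in duplicate, then development buffer added for another hour. IC50 from non-linear regression of dose-response curves.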

[2] = system: SW480 colon carcinoma cells; assay: Cell viability assay (CellTiter-Glo) in SW480 colon carcinoma cells; type: cell-based, human; conditions: Homo sapiens, 96 h, four days
Outline: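 Viability was taken from CellTiter-Glo ATP luminescence, read about 12 min after reagent addition, relative to DMSO controls. The cells were Sp5-Luc reporter SW480 colon carcinoma cells, 2,000/well in 1% FBS DMEM, exposed to compound for four days at 37 °C.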

[3] = system: primary human fibroblasts derived from IPF patients (LL29 cells); assay: Inhibition of the fibrotic process: αSMA staining in TGF-β1 treated LL29 fibroblasts; type: cell-based; conditions: Homo sapiens, Fibroblast, 96 h; LL29 cells, TGF-β1 20 ng/mL, 4 days, % αSMA positive cells
Outline: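 LL29 fibroblasts from IPF patients, in F12 medium with 1% FBS, treated with TGF-β1 plus compound; TGF-β1 with DMSO as positive control, DMSO alone as negative control. After 4 days' incubation, SYTOX green nucleic acid stain added at 1 μM final, 30 min at room temperature.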

IL-6 = IL-6 inhibition in LPS-stimulated human peripheral blood mononuclear cells (HTRF); type: cell-based; conditions: Homo sapiens, PBMC; for EC50: huPBMCs, LPS 50 ng/mL, 22 hours, IL-6 HTRF; for inhibition at 10 µM: read-out: percent inhibition at 10 μM
Protocol: Fresh Normal PB MNC (Catalog #PB001, AllCells, Alameda, Calif.) were shipped overnight at 4° C. and resuspended in Roswell Park Memorial Institute (RPMI) 1640 Medium, with GlutaMAX Supplement (Catalog #61870127, ThermoFisher Scientific, Waltham, Mass.) supplemented with 1% Penicillin-Streptomycin (Catalog #15140163. ThermoFisher Scientific, Waltham, Mass.) and 1% fetal bovine serum (FBS) (Catalog #16140089, ThermoFisher Scientific, Waltham, Mass.) assay media. Fresh normal human peripheral blood mononuclear cells (huPBMCs) were resuspended in 1% FBS-RPMI assay media with 1% Penicillin-Streptomycin 1% to a cell concentration of 1×10e6 cells/mL. […] 50 ng/mL of Lipopolysaccharides from Escherichia coli 0111:B4 (Catalog #L5293-2ML, Sigma-Aldrich, St. Louis, Mo.) was added after 2 hours and cells were incubated for another 22 hours at 37° C.-5% CO2. After 22 hour incubation, a mixture of anti-IL6 XL665 and anti-IL-6 Cryptate diluted in reconstitution buffer (Catalog #62IL6PEC, Cisbio Inc., Bedford, Mass.) was added to each well. Following incubation for 3 hours at room temperature, Homogeneous Time-Resolved Fluorescence (HTRF) was measured using the Envision (Perkin Elmer, Shelton, Conn.) at 665 nm and […]. The ratio of fluorescence at 665 nm to 620 nm was used as a readout for IL-6 quantification. All samples were processed in duplicate. Readings were normalized to DMSO treated cells and normalized activities were utilized for EC50 calculations.

Row | EC50 [1] | IC50 (DYRK1A kinase) | IC50 (GSK3β kinase) | EC50 [2] | EC50 (IL-6) | Compound | EC50 [3] | inhibition at 10 µM (IL-6)
1 | 1.34 µM | 0.002 µM | 0.022 µM | 0.829 µM | 0.419 µM | Cn1cc(-c2cc3c(C(=O)N[C@H]4CC[C@H](CN5CC(F)C5)CC4)n[nH]c3cc2F)cn1 [Compound 24, 6-fluoro-N-((1R,4R)-4-((3-fluoroazetidin-1-yl)methyl)cyclohexyl)-5-(1-methyl-1H-pyrazol-4-yl)-1H-indazole-3-carboxamide] | 0.125 µM | 
2 | 0.376 µM | 0.027 µM | 0.33 µM | 0.201 µM | 2.15 µM | O=C(Nc1ccc(OC(F)F)cc1)c1n[nH]c2cc(F)c(-c3cnn(C4CCNCC4)c3)cc12 [Compound 56, N-(4-(Difluoromethoxy)phenyl)-6-fluoro-5-(1-(piperidin-4-yl)-1H-pyrazol-4-yl)-1H-indazole-3-carboxamide] | 1.53 µM | 
3 | 1.98 µM | 0.018 µM | 0.006 µM | 1.33 µM | 1.09 µM | Cn1cc(-c2ccc3[nH]nc(C(=O)N[C@@H]4CCCC[C@H]4F)c3c2)cn1 [Compound 9, N-((1R,2R)-2-Fluorocyclohexyl)-5-(1-methyl-1H-pyrazol-4-yl)-1H-indazole-3-carboxamide] | 0.324 µM | 
4 | 3.83 µM | 0.026 µM | 0.024 µM | 2.55 µM | 2.89 µM | C[C@H](NC(=O)c1n[nH]c2ccc(-c3cnn(C)c3)cc12)C(F)(F)F [Compound 4, (S)-5-(1-Methyl-1H-pyrazol-4-yl)-N-(1,1,1-trifluoropropan-2-yl)-1H-indazole-3-carboxamide] | 0.171 µM | 
5 | 4.38 µM | 0.244 µM | 2.08 µM | > 10 µM | > 10 µM | O=C(Nc1ccc(OC(F)F)cc1)c1n[nH]c2ccc(-c3cnn(C4CNC4)c3)cc12 [Compound 54, 5-(1-(Azetidin-3-yl)-1H-pyrazol-4-yl)-N-(4-(difluoromethoxy)phenyl)-1H-indazole-3-carboxamide] | 2.92 µM | 9.7%
6 | 0.256 µM | 0.015 µM | 0.187 µM | 0.208 µM | 3.73 µM | O=C(Nc1ccc(F)cc1)c1n[nH]c2cc(F)c(-c3cnn(C4CCNCC4)c3)cc12 [Compound 49, 6-Fluoro-N-(4-fluorophenyl)-5-(1-(piperidin-4-yl)-1H-pyrazol-4-yl)-1H-indazole-3-carboxamide] | 1.01 µM | 
7 | 2.31 µM | 0.039 µM | 0.699 µM | > 10 µM | > 10 µM | O=C(Nc1ccc(N2CCCC2)nc1)c1n[nH]c2cc(F)c(-c3cnn(C4CC4)c3)cc12 [Compound 92, 5-(1-Cyclopropyl-1H-pyrazol-4-yl)-6-fluoro-N-(6-(pyrrolidin-1-yl)pyridin-3-yl)-1H-indazole-3-carboxamide] | 0.313 µM | 0%
8 | 0.1 µM | 0.002 µM | 0.208 µM | 0.116 µM | 1.12 µM | Cc1ncc(NC(=O)c2n[nH]c3ccc(-c4cnn(C5CCN(C)CC5)c4)cc23)s1 [Compound 98, 5-(1-(1-Methylpiperidin-4-yl)-1H-pyrazol-4-yl)-N-(2-methylthiazol-5-yl)-1H-indazole-3-carboxamide] | 0.119 µM | 
9 | 0.264 µM | 0.001 µM | 0.006 µM | 0.36 µM | > 10 µM | Cn1cc(-c2ccc3[nH]nc(C(=O)Nc4ccc(CN5CCCC5)cc4)c3c2)cn1 [Compound 68, 5-(1-Methyl-1H-pyrazol-4-yl)-N-(4-(pyrrolidin-1-ylmethyl)phenyl)-1H-indazole-3-carboxamide] | 0.074 µM | 
10 | 0.655 µM | 0.025 µM | 0.008 µM | 2.52 µM | 2.94 µM | Cn1cc(-c2ccc3[nH]nc(C(=O)NCCC(F)(F)F)c3c2)cn1 [Compound 5, 5-(1-Methyl-1H-pyrazol-4-yl)-N-(3,3,3-trifluoropropyl)-1H-indazole-3-carboxamide] | 0.151 µM | 
11 | > 10 µM | 0.198 µM | 0.02 µM | 1.94 µM | 3.32 µM | Cn1cc(-c2cc(F)c3[nH]nc(C(=O)N[C@@H]4CCCC[C@H]4F)c3c2)cn1 [Compound 11, 7-Fluoro-N-((1R,2R)-2-fluorocyclohexyl)-5-(1-methyl-1H-pyrazol-4-yl)-1H-indazole-3-carboxamide] | > 10 µM | 
12 | 1.49 µM | 0.025 µM | 0.169 µM | 1.1 µM | 4.8 µM | CC(C)n1cc(-c2ccc3[nH]nc(C(=O)Nc4ccc(CN5CCCC5)cc4)c3c2)cn1 [Compound 71, 5-(1-Isopropyl-1H-pyrazol-4-yl)-N-(4-(pyrrolidin-1-ylmethyl)phenyl)-1H-indazole-3-carboxamide] | 0.322 µM | 
13 | 1.19 µM | 0.034 µM | 0.476 µM | 0.648 µM | 6.05 µM | O=C(Nc1ccc(Cl)cc1)c1n[nH]c2cc(F)c(-c3cnn(C4CCNCC4)c3)cc12 [Compound 50, N-(4-Chlorophenyl)-6-fluoro-5-(1-(piperidin-4-yl)-1H-pyrazol-4-yl)-1H-indazole-3-carboxamide] | 1.11 µM | 
14 | 0.474 µM | 0.007 µM | 0.023 µM | 0.691 µM | 0.348 µM | CC(C)(F)CN1CCC(NC(=O)c2n[nH]c3ccc(-c4cn[nH]c4)cc23)CC1 [Compound 36, N-(1-(2-Fluoro-2-methylpropyl)piperidin-4-yl)-5-(1H-pyrazol-4-yl)-1H-indazole-3-carboxamide] | 0.147 µM | 
15 | > 10 µM | > 10 µM | > 10 µM | > 10 µM | > 10 µM | Cn1cc(-c2cc(Cl)c3[nH]nc(C(=O)NC4CCN(CC(C)(C)F)CC4)c3c2)cn1 [Compound 38, 7-Chloro-N-(1-(2-fluoro-2-methylpropyl)piperidin-4-yl)-5-(1-methyl-1H-pyrazol-4-yl)-1H-indazole-3-carboxamide] | > 10 µM | 8.8%
16 | 0.266 µM | 0.002 µM | 0.06 µM | 0.14 µM | 1.76 µM | CN1CCC(Oc2ccc(NC(=O)c3n[nH]c4cc(F)c(-c5cnn(C)c5)cc34)cc2)CC1 [Compound 79, 6-Fluoro-5-(1-methyl-1H-pyrazol-4-yl)-N-(4-((1-methylpiperidin-4-yl)oxy)phenyl)-1H-indazole-3-carboxamide] | 0.061 µM | 
17 | 0.61 µM | 0.026 µM | 0.055 µM | > 10 µM | 4.26 µM | CC(C)CN1CC[C@@H](NC(=O)c2n[nH]c3ccc(-c4cnn(C)c4)cc23)[C@@H](F)C1 [Compound 31, N-((3S,4R)-3-Fluoro-1-isobutylpiperidin-4-yl)-5-(1-methyl-1H-pyrazol-4-yl)-1H-indazole-3-carboxamide] | 2.46 µM | 
18 | 0.566 µM | 0.002 µM | 0.035 µM | 0.203 µM | 2.99 µM | CN1Cc2ccc(NC(=O)c3n[nH]c4cc(F)c(-c5cnn(C)c5)cc34)cc2C1 [Compound 85, 6-Fluoro-5-(1-methyl-1H-pyrazol-4-yl)-N-(2-methylisoindolin-5-yl)-1H-indazole-3-carboxamide] | 0.904 µM | 
